Tests used:
[1] = test system: GIRK channels; assay: Direct GIRK channel block by haloperidol; assay type: cell-based; settings: haloperidol at 3 µM; n = 4
[2] = test system: D2R; settings: 1 µM haloperidol; 100 nM DA; cited from earlier work
[3] = test system: GIRK channels; settings: haloperidol at 1 µM; cited from earlier work
[4] = molecular target: T1, D2R S193^5.42A (human dopamine D2S receptor mutant) (Homo sapiens, UniProt P14416, S193A); assay: cell-based; settings: for EC50: GIRK activation, perfusion 1 mL/min
Method: (§1) Following agonist application to Xenopus oocytes expressing D2R and GIRK1/4 subunits, Gβγ subunits released from activated Gi/o protein heterotrimers open the GIRK channels. […] Here, we used the GIRK current in oocytes voltage-clamped at −80 mV and superfused with a high-K^+ buffer (25 mM KCl) as a readout of agonist binding to D2R.
(§2) Thus, increasing agonist concentrations were applied consecutively to voltage-clamped oocytes expressing WT D2R, RGS4, and GIRK1/4. […] A representative trace of currents measured during p-tyramine concentration–response data acquisition is shown in Supplementary Figure S1).
(§3) Injected cells were incubated for another 6 days at 12 °C in modified Barth’s solution (MBS), composed of (in mM): 88 NaCl, 1 KCl, 2.4 NaHCO3, 15 HEPES, 0.33 Ca(NO3)2, 0.41 CaCl2, 0.92 MgSO4, and 2.5 sodium pyruvate, supplemented with 25 U/mL penicillin and 25 µg/mL streptomycin and adjusted to pH 7.6 with NaOH. […] For each concentration of agonist, the relative current amplitude after 60 s (when a steady-state response had been achieved) of agonist perfusion was plotted to generate the concentration-response relationships. Oocytes were selected for electrophysiology recordings based on having holding currents at −40 mV of less than 0.5 µA. Likewise, recordings where holding currents at −40 mV were greater than 0.5 µA after data acquisition at −80 mV were discarded.
(§4) Agonist concentration–response relationships were analyzed by fitting sigmoidal functions using nonlinear regression in GraphPad Prism 8 (GraphPad Software, San Diego, CA, USA).

[5] = molecular target: T2, WT D2R (human dopamine D2S receptor) (Homo sapiens, UniProt P14416); assay: cell-based
Method: as §1, §2, §3, §4

[6] = molecular target: T2, WT D2R (human dopamine D2S receptor); assay: GIRK current deactivation following agonist washout (koff estimate), WT D2R; assay type: cell-based
Method: We obtained such estimates of koff by analyzing the washout phase following short (13 s) applications of submaximally effective agonist concentrations (see legend of Figure 2) in oocytes co-expressing WT D2R with GIRK1/4 and RGS4.
Experiments were performed using a perfusion rate of 4.5 mL/min. Data are presented as mean ± SEM.
as §3

[7] = molecular target: T2, WT D2R (human dopamine D2S receptor); assay: GIRK current activation rate (kobs) vs agonist concentration (kon estimate), WT D2R; assay type: cell-based
Method: (§5) A straight line was fitted to the data over the linear range of the relation between kobs and agonist concentration and the slope was taken as a measure of kon.
(§6) Experiments were performed using a perfusion rate of 4.5 mL/min. […] Note the logarithmic y-axis. […] Data are presented as mean ± SEM.
(§7) Association rate constant estimates were derived from recordings of GIRK current activation in response to applications of various agonist concentrations. Monoexponential functions were fit to cover 80% of the current increase in response to agonist using Levenberg–Marquardt least-squares fitting in Clampfit 10, outputting the activation time constant, τact. […] However, rather than using Equation (2), koff was calculated separately from the response decay time constant upon agonist washout, τdeact, as described above.

[8] = molecular target: T1, D2R S193^5.42A (human dopamine D2S receptor mutant); assay: cell-based
Method: as §5, §6, §7
Kinetic Kds were calculated as:Kd = koff/kon(3)

[9] = test system: D2R S193^5.42A; settings: cited from earlier work
[10] = molecular target: T1, D2R S193^5.42A (human dopamine D2S receptor mutant); assay: cell-based; settings: read-out: koff ± SEM

T1 sequence (P14416 1-414 isoform P14416-2 S193A): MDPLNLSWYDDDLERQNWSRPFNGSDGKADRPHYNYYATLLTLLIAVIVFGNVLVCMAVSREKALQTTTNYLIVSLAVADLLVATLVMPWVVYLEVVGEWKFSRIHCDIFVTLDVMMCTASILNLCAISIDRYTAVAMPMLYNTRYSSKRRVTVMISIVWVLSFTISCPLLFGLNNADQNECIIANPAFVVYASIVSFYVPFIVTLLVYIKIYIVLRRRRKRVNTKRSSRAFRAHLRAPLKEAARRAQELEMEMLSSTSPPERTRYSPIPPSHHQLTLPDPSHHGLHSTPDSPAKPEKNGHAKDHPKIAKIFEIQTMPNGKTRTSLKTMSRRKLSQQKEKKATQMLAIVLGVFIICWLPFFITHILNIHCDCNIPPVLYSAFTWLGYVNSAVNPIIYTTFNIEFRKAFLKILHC
T2 sequence (P14416 1-414 isoform P14416-2): as the sequence (P14416 1-414 isoform P14416-2 S193A) above, with A193S counted along it

O=C(CCCN1CCC(O)(c2ccc(Cl)cc2)CC1)c1ccc(F)cc1 [haloperidol]
direct GIRK current block [1]: 5.9 ± 0.2% | block of the GIRK response to DA [2]: fully blocks | GIRK channel block [3]: negligible

NCCc1ccc(O)cc1 [p-tyramine]
EC50 ([4]; EC50, S193^5.42A D2R): 47.9 µM | Relative efficacy (fitted Top) ([4]; S193^5.42A D2R, normalized to the response evoked by 300 µM DA): 0.37 ± 0.01 | fold increase of DA-normalized agonist efficacy at S193^5.42A ([4]; S193^5.42A vs WT D2R): 4.1 fold | EC50 ([4]; pEC50 ± SEM, S193^5.42A D2R): 47.9 µM | EC50 [5]: 100 µM | Relative efficacy (fitted Top) ([5]; WT D2R, normalized to the response evoked by 1 µM DA): 0.09 ± 0.01 | koff [6]: 0.123 ± 0.008 s⁻¹ | Kd ([7]; Kd = koff/kon, read-out: pKd ± SEM (kinetic Kd) (converted)): 24.5 µM | kon ([7]; slope of linear fit of kobs vs agonist concentration, perfusion 4.5 mL/min): 4940 ± 1.15e+06 M⁻¹ s⁻¹ | Kd [8]: 11.7 µM | kon ([8]; read-out: kon ± SEM): 9410 ± 2.34e+06 M⁻¹ s⁻¹ | decrease of affinity by alanine mutation of S193^5.42 [9]: less than twofold | koff [10]: 0.112 ± 0.008 s⁻¹

Source: paper PMC8071183 (International Journal of Molecular Sciences, 2021)
